ChEMBL document CHEMBL1142218, “Synthesis, anti-HIV activity, and resistance profiles of ribose modified nucleoside phosphonates” (Bioorg Med Chem Lett, 2007)

Key:
[1] = tested on: Human immunodeficiency virus; experiment: Antiviral activity against wild type HIV; assay type: functional, organism-based; conditions: Human immunodeficiency virus 1
[2] = Cytotoxicity against human MT2 cells; assay type: cell-based
[3] = Inhibition of wild type HIV reverse transcriptase; design: species or system Human immunodeficiency virus
[4] = tested on: Human immunodeficiency virus; experiment: Antiviral activity against HIV with reverse transcriptase K65R mutation in MT-2 cells assessed as fold resistance relative to wild type
[5] = tested on: Human immunodeficiency virus; experiment: Antiviral activity against HIV with reverse transcriptase M184V mutation in MT-2 cells assessed as fold resistance relative to wild type
[6] = tested on: Human immunodeficiency virus; experiment: Antiviral activity against HIV with reverse transcriptase 6TAMs mutation in MT-2 cells assessed as fold resistance relative to wild type

| Compound | EC50 [1] | CC50 [2] | IC50 [3] | Activity [4] | Activity [5] | Activity [6] |
| --- | --- | --- | --- | --- | --- | --- |
| Cc1cn([C@H]2C=C[C@@H](OCP(=O)(O)O)O2)c(=O)[nH]c1=O | 26 µM | > 1000 µM | 0.39 µM | 5.2 | 1.1 | 12.7 |
| Cc1cn([C@H]2CC[C@@H](OCP(=O)(O)O)O2)c(=O)[nH]c1=O | > 200 µM | – | 5.4 µM | – | – | – |
| O=c1ccn([C@H]2C=C[C@@H](OCP(=O)(O)OP(=O)(O)OP(=O)(O)O)O2)c(=O)[nH]1 | – | – | 0.55 µM | – | – | – |
| Nc1ncnc2c1ncn2[C@H]1C=C[C@@H](OCP(=O)(O)OP(=O)(O)OP(=O)(O)O)O1 | – | – | 0.14 µM | – | – | – |
| O=c1[nH]c(=O)n([C@H]2C=C[C@@H](OCP(=O)(O)O)O2)cc1F | > 200 µM | – | – | – | – | – |
| O=c1[nH]c(=O)n([C@H]2C=C[C@@H](OCP(=O)(O)O)O2)cc1Cl | 28.5 µM | 413 µM | – | 6.7 | 0.8 | >10 |
| Nc1ccn([C@H]2C=C[C@@H](OCP(=O)(O)O)O2)c(=O)n1 | > 200 µM | – | – | – | – | – |
| Nc1ncnc2c1ncn2[C@H]1CO[C@@H](OCP(=O)(O)O)C1 | 9.5 µM | 863 µM | 0.32 µM | 2.2 | 11 | 3.2 |
| O=c1ccn([C@H]2CC[C@@H](OCP(=O)(O)O)O2)c(=O)[nH]1 | > 200 µM | – | – | – | – | – |
| Nc1ncnc2c1ncn2[C@H]1CC[C@@H](OCP(=O)(O)O)O1 | 12 µM | > 1000 µM | 4.1 µM | 4.9 | 1.1 | 3.4 |
| O=c1[nH]c(=O)n([C@H]2C=C[C@@H](OCP(=O)(O)O)O2)cc1Br | 15 µM | 935 µM | – | 7.5 | 1.3 | >10 |
| Cc1cn([C@H]2C=C[C@@H](OCP(=O)(O)OP(=O)(O)OP(=O)(O)O)O2)c(=O)[nH]c1=O | – | – | 0.06 µM | – | – | – |
| Nc1ncnc2c1ncn2[C@H]1CC[C@@H](OCP(=O)(O)OP(=O)(O)OP(=O)(O)O)O1 | – | – | 0.26 µM | – | – | – |
| Nc1ncnc2c1ncn2[C@H]1C=C[C@@H](OCP(=O)(O)O)O1 | 2.1 µM | > 1000 µM | 0.6 µM | 2.9 | 0.9 | 2.9 |
| Nc1ncnc2c1ncn2[C@H]1C=C[C@@H](OCP(=O)(O)O)C1 | 51.7 µM | – | – | – | – | – |
| O=c1ccn([C@H]2C=C[C@@H](OCP(=O)(O)O)O2)c(=O)[nH]1 | > 200 µM | > 1000 µM | 5.7 µM | – | – | – |
| Nc1nc(NC2CC2)c2ncn([C@H]3C=C[C@@H](CO)C3)c2n1 (single isomer, unassigned) [ABACAVIR] | 0.32 µM | 190 µM | 0.13 µM | 3.8 | 7.1 | 5.7 |
| C[C@H](Cn1cnc2c(N)ncnc21)OCP(=O)(O)O [TENOFOVIR ANHYDROUS] | 3.6 µM | > 1000 µM | 0.38 µM | 4.3 | 0.7 | 8.8 |
